Source: US20230013669A1, “Antibacterial Treatment Using a Cannabinoid and an Active Agent” (priority 2019, published 2023)
Where “and” joins values, the source holds several entries; their conditions need not be identical. Equal entries are not always repeated.

System: Pseudomonas aeruginosa ATCC 27853 (GN_042)
Test: Synergy of cannabidiol with cell-wall disrupting agent (CBD MIC in combination, FICI)
Type: cell-based
Method: The compounds were stored short term at 4° C.
Analysis was performed using Microsoft Excel.

[1] = CBD with Ceftazidime, Pseudomonas aeruginosa ATCC 27853

With `C=C(C)C1CCC(C)=CC1c1c(O)cc(CCCCC)cc1O` (stereo not shown) [Cannabidiol, 2-[3-methyl-6-(1-methylethenyl)-2-cyclohexen-1-yl]-5-pentyl-1,3-benzenediol] the “CBD MIC with Aztreonam” value (Aztreonam at 4 μg/mL) was 1 ng/mL, the FICI (CBD with Aztreonam at 0.25 μg/mL, CBD MIC taken as 256 μg/mL) was 1.0625 and the FICI (CBD with Aztreonam at 1 μg/mL, CBD MIC taken as 256 μg/mL) was 1.25. The FICI (CBD with Aztreonam at 2 μg/mL, CBD MIC taken as 256 μg/mL) was 0.5004 and 0.5039, the FICI (CBD with Aztreonam at 4 μg/mL, CBD MIC taken as 256 μg/mL) was 1 and the FICI range (CBD with Aztreonam, Synergy table (Table 76)) was 0.5. The FICI range (CBD with Aztreonam, all tested concentrations (Table 74)) was 0.5-1.25, the FICI (CBD with Cefepime at 0.015 μg/mL, CBD MIC taken as 256 μg/mL) was 1 and the FICI (CBD with Cefepime at 0.031 μg/mL, CBD MIC taken as 256 μg/mL) was 1. For the same compound, the FICI (CBD with Cefepime at 0.062 μg/mL, CBD MIC taken as 256 μg/mL) was 1, the FICI (CBD with Cefepime at 0.25 μg/mL, CBD MIC taken as 256 μg/mL) was 1.001 and the FICI (CBD with Cefepime at 0.5 μg/mL, CBD MIC taken as 256 μg/mL) was 1.002. For the same compound, the FICI range (CBD with Cefepime, all tested concentrations (Table 79)) was 1-1, the FICI (CBD with Cefotetan at 4 μg/mL, CBD MIC taken as 256 μg/mL) was 1.016 and the FICI (CBD with Cefotetan at 16 μg/mL, CBD MIC taken as 256 μg/mL) was 1.0625. For the same compound, the FICI (CBD with Cefotetan at 64 μg/mL, CBD MIC taken as 256 μg/mL) was 1.25, the FICI (CBD with Cefotetan at 128 μg/mL, CBD MIC taken as 256 μg/mL) was 1.5 and the “FICI range (MIC table)” value (CBD with Cefotetan, Pseudomonas aeruginosa ATCC 27853) was 1.02-1.5. The FICI (CBD with Ceftazidime at 0.25 μg/mL, Pseudomonas aeruginosa ATCC 27853) was 1.0625, the FICI (CBD with Ceftazidime at 1 μg/mL, Pseudomonas aeruginosa ATCC 27853) was 1.25 and the FICI (CBD with Ceftazidime at 2 μg/mL, Pseudomonas aeruginosa ATCC 27853) was 0.5. The FICI (CBD with Ceftazidime at 4 μg/mL, Pseudomonas aeruginosa ATCC 27853) was 1, the “FICI range (MIC table)” value [1] was 0.5-1.25 and the “FICI range (Synergy table)” value [1] was 0.5. For the same compound, the FICI (CBD with Cefuroxime at 4 μg/mL, Pseudomonas aeruginosa ATCC 27853) was 1.016, the FICI (CBD with Cefuroxime at 16 μg/mL, Pseudomonas aeruginosa ATCC 27853) was 1.0625 and the FICI (CBD with Cefuroxime at 64 μg/mL, Pseudomonas aeruginosa ATCC 27853) was 1.25. It also gave an FICI (CBD with Cefuroxime at 128 μg/mL, Pseudomonas aeruginosa ATCC 27853) of 1.5, an FICI (CBD with Colistin at 0.031 μg/mL, Pseudomonas aeruginosa ATCC 27853) of 1.031 and an FICI (CBD with Colistin at 0.062 μg/mL, Pseudomonas aeruginosa ATCC 27853) of 1.062. For the same compound, the FICI (CBD with Colistin at 0.25 μg/mL, Pseudomonas aeruginosa ATCC 27853) was 1.25, the FICI (CBD with Colistin at 0.5 μg/mL, Pseudomonas aeruginosa ATCC 27853) was 1.5 and the FICI (CBD with Colistin at 1 μg/mL, Pseudomonas aeruginosa ATCC 27853) was 1. The “FICI range (MIC table)” value (CBD with Colistin, Pseudomonas aeruginosa ATCC 27853) was 1-1.5, the “FICI range (MIC table)” value (CBD with MCC_6442, Pseudomonas aeruginosa ATCC 27853) was 1-1.5 and the FICI (CBD with MCC_6442 at 0.25 μg/mL, Pseudomonas aeruginosa ATCC 27853) was 1.0625. For the same compound, the FICI (CBD with MCC_6442 at 1 μg/mL, Pseudomonas aeruginosa ATCC 27853) was 1.25, the FICI (CBD with MCC_6442 at 2 μg/mL, Pseudomonas aeruginosa ATCC 27853) was 1.5 and the FICI (CBD with MCC_6442 at 4 μg/mL, Pseudomonas aeruginosa ATCC 27853) was 1. The FICI (CBD with Octapeptin C4 at 0.25 μg/mL, CBD MIC taken as 256 μg/mL) was 1.0625, the FICI (CBD with Octapeptin C4 at 0.5 μg/mL, CBD MIC taken as 256 μg/mL) was 1.0625 and the FICI (CBD with Octapeptin C4 at 1 μg/mL, CBD MIC taken as 256 μg/mL) was 1.25. For the same compound, the FICI (CBD with Octapeptin C4 at 2 μg/mL, CBD MIC taken as 256 μg/mL) was 1.25 and 1.5, the FICI (CBD with Octapeptin C4 at 4 μg/mL, CBD MIC taken as 256 μg/mL) was 0.5 and 1 and the FICI (CBD with Octapeptin C4 at […], CBD MIC taken as 256 μg/mL) was 1.016. For the same compound, the FICI range (CBD with Spero SPR206, 1st of 3 experiments) was 1-4, the FICI range (CBD with Spero SPR206, 3rd of 3 experiments) was 1.13-5 and the FICI (CBD with Spero SPR206 at 0.25 μg/mL, 1st of 3 experiments, CBD MIC taken as 256 μg/mL) was 1.25. The FICI (CBD with Spero SPR206 at 0.25 μg/mL, 3rd of 3 experiments, CBD MIC taken as 256 μg/mL) was 1.25, the FICI (CBD with Spero SPR206 at 0.5 μg/mL, 1st of 3 experiments, CBD MIC taken as 256 μg/mL) was 1.5 and the FICI (CBD with Spero SPR206 at 0.5 μg/mL, 3rd of 3 experiments, CBD MIC taken as 256 μg/mL) was 1.5. It also gave an FICI (CBD with Spero SPR206 at 1 μg/mL, 1st of 3 experiments, CBD MIC taken as 256 μg/mL) of 1, an FICI (CBD with Spero SPR206 at 1 μg/mL, 3rd of 3 experiments, CBD MIC taken as 256 μg/mL) of 2 and an FICI (CBD with Spero SPR206 at 2 μg/mL, 1st of 3 experiments, CBD MIC taken as 256 μg/mL) of 2. It also gave an FICI (CBD with Spero SPR206 at 2 μg/mL, 3rd of 3 experiments, CBD MIC taken as 256 μg/mL) of 3, an FICI (CBD with Spero SPR206 at 4 μg/mL, 1st of 3 experiments, CBD MIC taken as 256 μg/mL) of 4 and an FICI (CBD with Spero SPR206 at 4 μg/mL, 3rd of 3 experiments, CBD MIC taken as 256 μg/mL) of 5. The FICI (CBD with Ticarcillin at 2 μg/mL, Pseudomonas aeruginosa ATCC 27853) was 1.0625, the FICI (CBD with Ticarcillin at 4 μg/mL, Pseudomonas aeruginosa ATCC 27853) was 1.25 and the FICI (CBD with Ticarcillin at 8 μg/mL, Pseudomonas aeruginosa ATCC 27853, listed as CBD) was 1.25 and 1.5. For the same compound, the FICI (CBD with Ticarcillin at 16 μg/mL, Pseudomonas aeruginosa ATCC 27853, listed as CBD) was 0.5 and 1, the FICI (CBD with Ticarcillin at 32 μg/mL, Pseudomonas aeruginosa ATCC 27853, listed as CBD) was 1 and 2 and the FICI (CBD with Ticarcillin at 64 μg/mL, Pseudomonas aeruginosa ATCC 27853, listed as CBD) was 2 and 4. For the same compound, the “FICI range (Synergy table)” value (CBD with Ticarcillin, Pseudomonas aeruginosa ATCC 27853) was 0.5, the “CBD MIC with Cefotetan” value (Cefotetan at 4 μg/mL) was >32 µg/mL and the “CBD MIC with Cefotetan” value (Cefotetan at 4 μg/mL, Pseudomonas aeruginosa ATCC 27853) was >256 µg/mL. The “CBD MIC with Cefotetan” value (Cefotetan at 8 μg/mL) was >32 µg/mL, the “CBD MIC with Cefotetan” value (Cefotetan at 8 μg/mL, Pseudomonas aeruginosa ATCC 27853) was >256 µg/mL and the “CBD MIC with Cefotetan” value (Cefotetan at 16 μg/mL) was >32 µg/mL. The “CBD MIC with Cefotetan” value (Cefotetan at 16 μg/mL, Pseudomonas aeruginosa ATCC 27853) was >256 µg/mL, the “CBD MIC with Cefotetan” value (Cefotetan at 32 μg/mL) was >32 µg/mL and the “CBD MIC with Cefotetan” value (Cefotetan at 32 μg/mL, Pseudomonas aeruginosa ATCC 27853) was >256 µg/mL. For the same compound, the “CBD MIC with Cefotetan” value (Cefotetan at 64 μg/mL) was >32 µg/mL, the “CBD MIC with Cefotetan” value (Cefotetan at 64 μg/mL, Pseudomonas aeruginosa ATCC 27853) was >256 µg/mL and the “CBD MIC with Cefotetan” value (Cefotetan at 128 μg/mL) was >32 µg/mL. For the same compound, the “CBD MIC with Cefotetan” value (Cefotetan at 128 μg/mL, Pseudomonas aeruginosa ATCC 27853) was >256 µg/mL, the “CBD MIC with Ceftazidime” value (Ceftazidime at 0.015 μg/mL as headed in Table 64, Pseudomonas aeruginosa ATCC 27853) was >256 µg/mL and the “CBD MIC with Ceftazidime” value (Ceftazidime at 0.031 μg/mL as headed in Table 64, Pseudomonas aeruginosa ATCC 27853) was >256 µg/mL. For the same compound, the “CBD MIC with Ceftazidime” value (Ceftazidime at 0.062 μg/mL as headed in Table 64, Pseudomonas aeruginosa ATCC 27853) was >256 µg/mL.
